Legend:
aFGF [1] = target: T1, aFGF (Homo sapiens, UniProt P05230); assay: Isothermal titration calorimetry, binding to aFGF; details: from ITC stoichiometry
T1 construct: made in house; host or cells: E. coli

[2] = tested on: FGFR1 extracellular domain; details: Kan et al., 1993; cited from earlier work
aFGF [3] = target: T1, aFGF; details: Mach et al., 1993; cited from earlier work
[4] = tested on: sFGFR (soluble extracellular domain of FGFR2); assay: Binding of sFGFR to a heparin-sepharose column; set-up: species or system human

T1 sequence (P05230 whole entry): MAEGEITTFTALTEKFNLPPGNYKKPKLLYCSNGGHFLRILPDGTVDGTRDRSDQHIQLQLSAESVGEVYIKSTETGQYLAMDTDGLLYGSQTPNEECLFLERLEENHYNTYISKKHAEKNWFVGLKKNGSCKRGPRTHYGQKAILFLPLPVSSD

heparin
saccharide units of heparin per one bound aFGF (aFGF [1]): 4-5 saccharide units | binding to the extracellular domain of FGFR1 [2]: binds to the extracellular domain of FGFR1 | binding to aFGF (aFGF [3]): relatively high affinity, in a multivalent fashion | binding of sFGFR to heparin-sepharose column [4]: could not be detected
